Test results as given in PMC9203742 (Nature Communications, 2022).
“And” between values parts separate entries of the source, which are not always exact repeats. Identical values can stand only once.

Assays:
[1] = tested on: MLIs surrounded by mGlu1(N264H)-expressing Purkinje cells (AAV-L7-mGlu1^CBC); assay: sAP-mediated currents (firing rate) of MLIs in slices infected with AAV-L7-mGlu1^CBC; assay type: cell-based, mouse; details: 10 μM Pd(sulfo-bpy); P = 0.293
Protocol: To monitor the excitability of MLIs, sAP-mediated current responses were extracellulary recorded by a loose cell-attached voltage-clamp at a holding potential of 0 mV. Glass electrodes used for cell-attached recordings had resistances of 3–5 MΩ when filled with ACSF. The current recordings from AAV-infected cells were performed 1−2 weeks after infection. The EPSCs and sAP-mediated currents were recorded using an Axopatch 200B amplifier (Molecular Devices), and the pClamp system (version 9.2; Molecular Devices) was used for data acquisition and analysis. The signals were filtered at 1 kHz and digitized at 4 kHz for the evoked EPSCs and 10 kHz for the sAP-mediated currents.
Injection of viral solutions was performed as described previously with slight modifications. Briefly, under deep anesthesia, with an intraperitoneal injection of medetomidine (0.3 mg/kg), midazolam (4.0 mg/kg), and butorphanol (5.0 mg/kg), 4 µL of the solutions containing AAV mixture were directly injected into the vermis of cerebellar lobules V-VIII (200-300 µm in depth, 12 µL/h in rate) of WT mice (C57BL/6J, P20-P30) using glass pipette (30–40 µm in diameter) and microinjector (Nanoliter; World Precision Instruments). In all, 1−2 week after injection, the mice were used for each experiment.

[2] = tested on: Purkinje cells in cerebellar slices from mGlu1^+/+ mice; assay: chemLTD recording (PF-EPSC) in Purkinje cells of acute cerebellar slices, mGlu1^+/+ mice; assay type: cell-based, mouse; details: for PF-EPSC amplitude relative to time 0: mGlu1+/+, individual cells
Protocol: (§1) Sagittal cerebellar slices were cut with a microslicer (Linear slicer Pro7; DOSAKA EM) in cutting solution buffer and then incubated in ACSF gassed with 5% CO2 and 95% O2 at room temperature.
(§2) Whole-cell patch-clamp recordings were made from visually identified Purkinje cells using a 60× water-immersion objective attached to an upright microscope (BX51WI, Olympus) at room temperature, as described previously. […] Picrotoxin (100 µM; Sigma) was always added to the saline to block inhibitory synaptic transmission.
(§3) To evoke EPSCs derived from CF (CF-EPSCs) and PF (PF-EPSCs) inputs onto Purkinje cells, square pulses were applied through a stimulating electrode placed on the granular layer and the molecular layer (50 µm away from the pial surface), respectively. The selective stimulation of CFs and PFs was confirmed by the paired-pulse depression (PPD) and paired-pulse facilitation (PPF) of EPSC amplitudes at a 50-ms interstimulus interval (ISI), respectively.
(§4) For the LTD sessions, PF-EPSCs were recorded successively at a frequency of 0.1 Hz from Purkinje cells clamped at –80 mV. After a stable PF-EPSC amplitude had been observed for at least 5 min, a conjunctive stimulation that consisted of 30 single PF stimuli together with a 200 ms depolarizing pulse from a holding potential of –60 to +20 mV was applied for LTD induction.
(§5) To chemically induce LTD (chemLTD), 50 µM (S)-3,5-dihydroxyphenylglycine (DHPG) or 1 µM Pd(sulfo-bpy) was applied for 10 min in a current-clamp mode. We often observed a transient decrease in PF-EPSC amplitude after the application of each drug probably because Purkinje cells under current-clamp conditions excite spontaneously to suppress presynaptic function through the retrograde signaling. Access resistances were monitored every 10 s by measuring the peak currents in response to 2 mV, 50-ms hyperpolarizing steps throughout the experiments; the measurements were discarded if the resistance changed by >20% of its original value. The normalized EPSC amplitude on the ordinate represents the EPSC amplitude for the average of six traces for 1 min divided by that of the average of six traces for 1 min immediately before the conjunctive stimulation or the drug application.

[3] = Solubility of Pd complexes in ACSF by UV-vis spectroscopy; details: 1 h at 4 °C
[4] = tested on: Purkinje cells in cerebellar slices from mGlu1^CBC/+ mice; assay: chemLTD recording (PF-EPSC) in Purkinje cells of acute cerebellar slices, mGlu1^CBC/+ mice; assay type: cell-based, mouse; details: for PF-EPSC amplitude relative to time 0: mGlu1CBC/+, individual cells
Protocol: as §1, §2, §3, §4, §5

[5] = tested on: Purkinje cells in cerebellar slices from mGlu1^CBC/CBC mice; assay: chemLTD recording (PF-EPSC) in Purkinje cells of acute cerebellar slices, mGlu1^CBC/CBC mice; assay type: cell-based, mouse; details: for PF-EPSC amplitude relative to time 0: mGlu1CBC/CBC, individual cells
Protocol: as §1, §2, §3, §4, §5

[6] = 1 μM Pd(sulfo-bpy) for 10 min, t = 31−35 min

Cc1ccnc(-c2cc(COCCCS(=O)(=O)[O-])ccn2)c1.[Cl][Pd][Cl].[Na+] [Pd(sulfo-bpy)]
Firing rate of MLIs [1]: failed to increase | chemLTD: normalized PF-EPSC amplitude [2, 6]: 99 ± 4% | PF-EPSC amplitude relative to time 0 ([2]; time 11 min): 1.305 and 0.7371 and 0.3878 and 0.9487 and 0.6362 and 1.191 and 0.6572 and 0.79 | PF-EPSC amplitude relative to time 0 ([2]; time 12 min): 1.203 and 0.9018 and 0.4484 and 1.074 and 0.6455 and 1.19 and 0.9598 and 0.8251 | PF-EPSC amplitude relative to time 0 ([2]; time 13 min): 1.075 and 1.089 and 0.5282 and 1.162 and 0.6836 and 1.016 and 0.9614 and 0.7972 | PF-EPSC amplitude relative to time 0 ([2]; time 14 min): 1.127 and 1.131 and 0.639 and 1.08 and 0.8118 and 0.8848 and 0.8669 and 0.886 | PF-EPSC amplitude relative to time 0 ([2]; time 15 min): 0.8966 and 0.8928 and 0.5282 and 1.038 and 0.8059 and 0.9429 and 0.8907 and 0.8537 | PF-EPSC amplitude relative to time 0 ([2]; time 16 min): 1.016 and 0.9829 and 0.5855 and 1.115 and 0.7312 and 0.9396 and 0.9005 and 0.8573 | PF-EPSC amplitude relative to time 0 ([2]; time 17 min): 1.118 and 0.828 and 0.627 and 1.083 and 0.6712 and 0.9977 and 1.081 and 0.8535 | PF-EPSC amplitude relative to time 0 ([2]; time 18 min): 1.106 and 0.9208 and 0.5918 and 1.166 and 0.7081 and 1.026 and 1.038 and 0.9503 | PF-EPSC amplitude relative to time 0 ([2]; time 19 min): 1.038 and 0.7989 and 0.7251 and 1.08 and 0.721 and 0.8774 and 0.9331 and 0.9414 | PF-EPSC amplitude relative to time 0 ([2]; time 20 min): 1.053 and 0.8133 and 0.2871 and 1.2251 and 0.7983 and 1.16 and 1.101 and 0.9444 | PF-EPSC amplitude relative to time 0 ([2]; time 21 min): 1.169 and 0.7496 and 1.002 and 1.096 and 0.7681 and 0.9902 and 1.174 and 0.9728 | PF-EPSC amplitude relative to time 0 ([2]; time 22 min): 1.26 and 0.9695 and 1.072 and 1.131 and 0.7557 and 1.075 and 1.029 and 0.936 | PF-EPSC amplitude relative to time 0 ([2]; time 23 min): 1.263 and 0.7868 and 0.9511 and 1.11 | Solubility: concentration over which linearity of absorbance at 312 nm is observed [3]: over 1 mM | chemLTD: normalized PF-EPSC amplitude [4, 6]: 68 ± 5% | PF-EPSC amplitude relative to time 0 ([4]; time 11 min): 0.4686 and 0.63 and 0.9877 and 0.796 and 0.8663 and 0.8992 and 0.747 and 0.5935 | PF-EPSC amplitude relative to time 0 ([4]; time 12 min): 0.5628 and 0.6446 and 0.9391 and 0.713 and 0.7198 and 0.9003 and 0.6921 and 0.7152 | PF-EPSC amplitude relative to time 0 ([4]; time 13 min): 0.621 and 0.6377 and 0.8863 and 0.7092 and 0.7439 and 0.8712 and 0.699 and 0.7447 | PF-EPSC amplitude relative to time 0 ([4]; time 14 min): 0.6095 and 0.6409 and 0.8383 and 0.7009 and 0.7151 and 0.836 and 0.6833 and 0.8191 | PF-EPSC amplitude relative to time 0 ([4]; time 15 min): 0.6012 and 0.6741 and 0.9189 and 0.6721 and 0.6888 and 0.8836 and 0.7293 and 0.8645 | PF-EPSC amplitude relative to time 0 ([4]; time 16 min): 0.5331 and 0.6806 and 0.916 and 0.7015 and 0.697 and 0.7978 and 0.7054 and 0.8737 | PF-EPSC amplitude relative to time 0 ([4]; time 17 min): 0.5491 and 0.6542 and 0.8424 and 0.6962 and 0.6712 and 0.7371 and 0.6859 and 0.9232 | PF-EPSC amplitude relative to time 0 ([4]; time 18 min): 0.5728 and 0.6898 and 0.851 and 0.7066 and 0.6167 and 0.9345 and 0.6617 and 0.9653 | PF-EPSC amplitude relative to time 0 ([4]; time 19 min): 0.6147 and 0.6344 and 0.8403 and 0.7161 and 0.6281 and 0.877 and 0.663 and 0.9646 | PF-EPSC amplitude relative to time 0 ([4]; time 20 min): 0.6536 and 0.6214 and 0.844 and 0.7068 and 0.6666 and 0.8676 and 0.6507 and 0.862 | PF-EPSC amplitude relative to time 0 ([4]; time 21 min): 0.6234 and 0.6163 and 0.8161 and 0.7457 and 0.6988 and 0.7776 and 0.5996 and 0.8293 | PF-EPSC amplitude relative to time 0 ([4]; time 22 min): 0.6625 and 0.6523 and 0.8492 and 0.7192 and 0.6537 and 0.814 and 0.6019 and 0.7969 | PF-EPSC amplitude relative to time 0 ([4]; time 23 min): 0.703 and 0.6662 and 0.865 and 0.711 | chemLTD: normalized PF-EPSC amplitude [5, 6]: 71 ± 5% | PF-EPSC amplitude relative to time 0 ([5]; time 11 min): 0.6364 and 0.5841 and 0.6893 and 0.9073 and 0.8328 and 0.7699 and 0.718 and 0.7562 and 0.9988 and 0.8349 and 0.5757 | PF-EPSC amplitude relative to time 0 ([5]; time 12 min): 0.827 and 0.5867 and 0.7148 and 0.9371 and 0.7788 and 0.6794 and 0.7449 and 0.7226 and 1.01 and 0.7931 and 0.6087 | PF-EPSC amplitude relative to time 0 ([5]; time 13 min): 0.8172 and 0.6851 and 0.7171 and 1.091 and 0.7809 and 0.6502 and 0.6746 and 0.5919 and 1.019 and 0.8421 and 0.5537 | PF-EPSC amplitude relative to time 0 ([5]; time 14 min): 0.7882 and 0.6733 and 0.6788 and 1.041 and 0.7381 and 0.6557 and 0.5543 and 0.7541 and 0.9808 and 0.752 and 0.5358 | PF-EPSC amplitude relative to time 0 ([5]; time 15 min): 0.7548 and 0.7484 and 0.6382 and 0.9601 and 0.7893 and 0.6974 and 0.5323 and 0.7206 and 0.9958 and 0.7333 and 0.563 | PF-EPSC amplitude relative to time 0 ([5]; time 16 min): 0.7642 and 0.6145 and 0.7007 and 0.8597 and 0.792 and 0.6967 and 0.6481 and 0.669 and 0.9606 and 0.6776 and 0.562 | PF-EPSC amplitude relative to time 0 ([5]; time 17 min): 0.7633 and 0.6552 and 0.685 and 0.991 and 0.7793 and 0.8388 and 0.6612 and 0.7158 and 1.026 and 0.669 and 0.5661 | PF-EPSC amplitude relative to time 0 ([5]; time 18 min): 0.7518 and 0.6433 and 0.6556 and 0.9807 and 0.8623 and 0.726 and 0.6303 and 0.6396 and 0.9248 and 0.6931 and 0.5685 | PF-EPSC amplitude relative to time 0 ([5]; time 19 min): 0.7866 and 0.7223 and 0.6298 and 1.039 and 0.7923 and 0.7732 and 0.6413 and 0.6754 and 1.015 and 0.7024 and 0.4513 | PF-EPSC amplitude relative to time 0 ([5]; time 20 min): 0.7361
